Measured values taken from ChEMBL document CHEMBL4765408, “Design and synthesis of benzylidenecyclohexenones as TrxR inhibitors displaying high anticancer activity and inducing ROS, apoptosis, and autophagy” (Eur J Med Chem, 2020).
Calls of active or inactive are those of the source. The calls are words filed in the database; no cut-off is given here.

Assays:
MDA-MB-231 [1] = assay: Antiproliferative activity against human MDA-MB-231 cells after 72 hrs by sulforhodamine B assay; type: functional, cell-based; conditions: MDA-MB-231, 72 h
MCF7 = assay: Antiproliferative activity against human MCF7 cells after 72 hrs by sulforhodamine B assay; type: functional, cell-based; conditions: MCF7, 72 h
A549 = assay: Antiproliferative activity against human A549 cells after 72 hrs by sulforhodamine B assay; type: functional, cell-based; conditions: A549, 72 h
KB = assay: Antiproliferative activity against human KB cells after 72 hrs by sulforhodamine B assay; type: functional, cell-based
[2] = Antiproliferative activity against human KB-VIN cells after 72 hrs by sulforhodamine B assay; type: functional, cell-based; conditions: KBVIN
[3] = Selectivity ratio of IC50 for human A549 cells to IC50 for human MDA-MB-231 cells; type: functional
Rattus norvegicus = species on record: Rattus norvegicus; assay: Inhibition of purified rat liver TrxR measured after 75 mins in presence of NADPH by DTNB based assay
[4] = Inhibition of TrxR in human MDA-MB-231 cells measured after 72 hrs by colorimetric method; type: cell-based
MDA-MB-231 [5] = assay: Down regulation of TrxR1 expression in human MDA-MB-231 cells at 1.8 uM measured after 72 hrs by Western blot analysis; type: functional, cell-based
MDA-MB-231 [6] = assay: Induction of reactive oxygen species generation in human MDA-MB-231 cells measured after 24 hrs by DCFH-DA probe based flow cytometry; type: functional, cell-based
MDA-MB-231 [7] = assay: Induction of apoptosis in human MDA-MB-231 cells at 1.8 uM measured after 72 hrs by APC-Annexin V/7-AAD staining based flow cytometry relative to control; type: functional
MDA-MB-231 [8] = assay: Induction of apoptosis in human MDA-MB-231 cells assessed as activation of caspase-3 cleavage at 1.8 uM measured after 72 hrs by Western blot analysis; type: functional, cell-based
MDA-MB-231 [9] = assay: Induction of autophagy in human MDA-MB-231 cells transfected with mRFP-eGFP-LC3 assessed as accumulation of autophagosomes by measuring increase in […] fluorescence at 1.8 uM measured after 24 hrs by confocal laser scanning microscopy; type: functional, cell-based
MDA-MB-231 [10] = assay: Induction of autophagy in human MDA-MB-231 cells transfected with mRFP-eGFP-LC3 assessed as accumulation of autolysosome by measuring increase in red fluorescence at 1.8 uM measured after 24 hrs by confocal laser scanning microscopy; type: functional, cell-based
MDA-MB-231 [11] = assay: Induction of autophagy in human MDA-MB-231 cells transfected with mRFP-eGFP-LC3 assessed as increase in LC3-II expression at 1.8 uM measured after 72 hrs by Western blot analysis; type: functional, cell-based
MDA-MB-231 [12] = assay: Antitumor activity against human MDA-MB-231 cells xenografted in BALB/c nude mouse assessed as reduction in tumor weight at 10 mg/kg, ip measured at 2 days interval for 21 days relative to control; type: functional; set-up: scale not given: the % may be the effect or the level left; conditions: time 2 day

Row | SMILES | IC50 (MDA-MB-231 [1]) [µM] | IC50 (MCF7) [µM] | IC50 (A549) [µM] | IC50 (KB) [µM] | IC50 [2] [µM] | further results
1 | O=C1C=CCC/C1=C\c1ccccc1OC(F)(F)F | 1.01 |  |  |  |  | 
2 | O=C1C=CCC/C1=C\c1ccc2c(c1)OCO2 | 1.65 | 2.28 | 1.52 | 1.66 | 2.2 | 
3 | COc1cc(/C=C2\CN(S(=O)(=O)c3ccc(C)cc3)C=CC2=O)cc(OC)c1OC | 22.2 | 19.2 | 20.2 |  |  | 
4 | COc1cc(/C=C/C(=O)N2CCC=CC2=O)cc(OC)c1OC [PIPLARTINE] | 3.72 | 4.4 | 3.2 | 1.67 | 7.85 | inhibition (Rattus norvegicus): Active; IC50 [4]: 1.52 µM; Activity (MDA-MB-231 [5]): Active; Activity (MDA-MB-231 [6]): Active; Activity (MDA-MB-231 [7]): Active; Activity (MDA-MB-231 [8]): Active; Activity (MDA-MB-231 [9]): Active; Activity (MDA-MB-231 [10]): Active; Activity (MDA-MB-231 [11]): Active; Activity (MDA-MB-231 [12]): 44.9%
5 | O=C1C=CCC/C1=C\c1ccc(-c2ccccc2)cc1 | 0.68 | 4.97 | 3.67 | 2.32 | 4.84 | 
6 | CC(=O)n1cc(/C=C2\CCC=CC2=O)c2ccccc21 | 0.93 | 5.44 | 4.83 | 4.46 | 5.05 | 
7 | COc1cc(/C=C2\CNC=CC2=O)cc(OC)c1OC | > 25 | > 25 | > 25 |  |  | 
8 | COc1cc(/C=C2\CCC=C(I)C2=O)cc(OC)c1OC | 0.67 | 5.33 | 4.86 | 3.67 | 5.31 | 
9 | O=C1C=CCC/C1=C\c1cccnc1 | 1.05 | 2.03 | 1.51 | 1.52 | 2.81 | 

More lines, main results first:

Row | IC50 (MDA-MB-231 [1]) [µM] | IC50 (MCF7) [µM] | IC50 (A549) [µM] | IC50 (KB) [µM] | SMILES | IC50 [2] [µM] | further results
10 | 0.61 | 4.71 | 5.09 | 3.85 | COc1cccc(/C=C2\CCC=CC2=O)c1OC | 5.22 | Ratio IC50 [3]: 8
11 | 0.64 | 5.23 | 4.68 | 0.9 | COc1ccc(/C=C2\CCC=CC2=O)cc1OC | 5.38 | 
12 | 1.62 | 2.57 | 1.46 | 1.56 | COc1ccc(/C=C2\CCC=CC2=O)cc1 | 2.93 | 
13 | 0.6 | 3.95 | 3.64 | 1.28 | CCOc1ccc(/C=C2\CCC=CC2=O)cc1OC | 4.8 | 
14 | 0.6 | 4.62 | 4.74 | 3.63 | COc1cc(/C=C2\CCC=CC2=O)cc(OC)c1 | 4.87 | 
